In patent publication US5219884A, “Immunosuppressant” (Taito Co., Ltd., priority 1990, dated 1993):
Like-named read-outs stand apart in the source and are kept apart here.

Columns and labels:
[1] = in vitro; format: cell-based, human; details: human, read-out: Suppression
Protocol: (§1) Cytotoxicity to human tumor cell lines was examined as follows:
(§2) Cells of human cell lines, K562, MOLT4, U937, HL60, KATOIII, KB, PC-6, PC-14 and CCRF-CEM were separately suspended to the concentration of 2×10^5 cells/ml in the RPMI1640 culture medium supplemented with 20% FCS. Fifty μl of this suspension was added to each well of 96-well microculture plates to which 50 μl of the test solution had been added. After culturing at 37° C. in an atmosphere of 5% carbon dioxide for 72 hours, the absorbancy at 550 nm was measured in the same way as the colorimetry using MTT in Experimental Example 1, and the percent suppression was calculated in the same manner as in Experimental Example 14, which was used as the index of cytotoxicity.

[2] = system: K562; assay: in vitro; format: cell-based, human
Protocol: as §1, §2

[3] = system: PC-14; assay: in vitro; format: cell-based, human
Protocol: as §1, §2

[4] = system: CCRF-CEM; assay: in vitro; format: cell-based, human
Protocol: as §1, §2

[5] = system: HL60; assay: in vitro; format: cell-based, human
Protocol: as §1, §2

[6] = system: KB; assay: in vitro; format: cell-based, human
Protocol: as §1, §2

[7] = system: U937; assay: in vitro; format: cell-based, human
Protocol: as §1, §2

[8] = system: mouse allogenic mixed lymphocyte reaction (BALB/c responder, C57BL/6 stimulator spleen cells); assay: mouse allogenic mixed lymphocyte reaction (MLR), blastogenesis by 3H-thymidine uptake; format: cell-based
Protocol: The immunosuppressive activity of the compounds (I) and their lactones was assayed by using mouse allogenic mixed lymphocyte reaction (hereinafter sometimes abbreviated as MLR). Mouse allogenic MLR was carried out by mixed culture of the BALB/c mouse (H-2^d) spleen cells as the responder cells and the mitomycin C-treated C57BL/6 (H-2^b) spleen cells as the stimulator cells in equal amounts.
The responder cells were prepared as follows: The spleen was resected from 5- to 6-week-old male BALB/c mice, and single cell suspension of spleen cells was prepared by using the RPMI1640 culture medium (containing 60 μg/ml of kanamycin sulfate, 2 mM of L-glutamine, 10 mM of N-2-hydroxyethylpiperazine-N'-2-ethanesulfonate (HEPES) and 0.1% sodium hydrogencarbonate) to which heat-inactivated fetal calf serum (hereinaftersometimes abbreviated as FCS) had been added to 5%. After hemolytic treatment, the cell suspension was adjusted to a concentration of 10^7 cells/ml by using the RPMI1640 culture medium supplemented with 10^-4 M 2-mercaptoethanol and 20% FCS, and was used as the responder cell suspension.
The stimulator cells were prepared as follows:
The spleen was resected from 5- to 6-week-old male C57BL/6 mice, and single cell suspension of spleen cells was prepared by using the RPMI1640 culture medium. After hemolytic treatment, the cells were treated with 40 μg/ml of mitomycin C at 37° C. for 60 minutes. After washing three times, the concentration of the cell suspension was adjusted to 10^7 cells/ ml by using the RPMI1640 culture medium supplemented with 10^-4 M 2-mercaptoethanol and 20% FCS, and was used as the stimulator cell suspension.
Fifty μl of the responder cell suspension, 50μl of the stimulator cell suspension prepared by the above method, and 100 μl of the test substance were placed in 96-well microculture plates, and were cultured at 37° C. in an atmosphere of 5% carbon dioxide for 4 days.
The blastogenesis of lymphocytes was assayed by a method of ^3 H-thymidine uptake as an index. That is, after termination of the culture, 0.5 μCi/well of ^3 H-thymidine was added and cultured for 4 hours. Cells were harvested by a cell-harvester, and the radioactivity incorporated into the cells was determined by a liquid scintillation counter to obtain the index of blastogenesis of lymphocytes in the mouse allogenic MLR. The suppression of the mouse allogenic MLR was evaluated by calculating the percent suppression by the following formula. [formula]
The test substance was dissolved in methanol or suspended in a mixture of methanol and acetic acid, and then diluted with the RPMI1640 culture medium.

[9] = cytotoxicity to tumor cell line MOLT4; format: cell-based, human; details: human, molt4 cells, read-out: Suppression
Protocol: as §1, §2

[10] = system: MOLT4; assay: cytotoxicity to tumor cell line MOLT4; format: cell-based, human
Protocol: as §1, §2

[11] = cytotoxicity to mouse L929 cells; format: cell-based; details: mouse, l929 cells, read-out: Suppression
Protocol: (§3) Cytotoxicity to mouse L929 cells was assayed as follows:
(§4) L929 cells were suspended to the concentration of 1.5×10^5 cells/ml in the F12 culture medium supplemented with 10% FCS. One hundred μl of the suspension was added to each well of 96-well microculture plates, and cultured at 37° C. in an atmosphere of 5% carbon dioxide for 24 hours, to which 100 μl of the test solution was added and cultured for further 48 hours. After the culture, 100 μl of the supernatant was removed and the absorbancy at 550 nm was measured in the same way as the colormetry using MTT in Experimental Example 1. The percent suppression was calculated by the following formula used as the index of cytotoxicity. [formula]

[12] = system: mouse L929 cells; assay: cytotoxicity to mouse L929 cells; format: cell-based; details: 550 nm
Protocol: as §3, §4

Compound CCCCCCC(=O)CCCCCCCCCC(O)C(O)C(N)(CO)C(=O)O (stereo not shown) [Example 5] has a cytotoxicity at 72 h ([1]; ccrf-cem cells, 0.1 μg/ml) of 3.6%, a cytotoxicity at 72 h ([1]; ccrf-cem cells, 1.0 μg/ml) of 7.4% and a cytotoxicity at 72 h ([1]; ccrf-cem cells, 10.0 μg/ml) of 21.7%. For the same compound, the cytotoxicity at 72 h ([1]; hl60 cells, 0.1 μg/ml) was 20.5%, the cytotoxicity at 72 h ([1]; hl60 cells, 1.0 μg/ml) was 11.9% and the cytotoxicity at 72 h ([1]; hl60 cells, 10.0 μg/ml) was 20.9%. It also gave a cytotoxicity at 72 h ([1]; k562 cells, 0.1 μg/ml) of 1.6%, a cytotoxicity at 72 h ([1]; k562 cells, 1.0 μg/ml) of 3.1% and a cytotoxicity at 72 h ([1]; k562 cells, 10.0 μg/ml) of 6.7%. It also gave a cytotoxicity at 72 h ([1]; kb cells, 0.1 μg/ml) of 0%, a cytotoxicity at 72 h ([1]; kb cells, 1.0 μg/ml) of 0% and a cytotoxicity at 72 h ([1]; kb cells, 10.0 μg/ml) of 2.6%. The cytotoxicity at 72 h ([1]; pc-14 cells, 0.1 μg/ml) was 11.4%, the cytotoxicity at 72 h ([1]; pc-14 cells, 1.0 μg/ml) was 16.5% and the cytotoxicity at 72 h ([1]; pc-14 cells, 10.0 μg/ml) was 25.7%. For the same compound, the cytotoxicity at 72 h ([1]; u937 cells, 0.1 μg/ml) was 4.5%, the cytotoxicity at 72 h ([1]; u937 cells, 1.0 μg/ml) was 0% and the Absorbancy ([2]; 0.1 μg/ml) was 0.823. It also gave an Absorbancy ([2]; 1.0 μg/ml) of 0.810, an Absorbancy ([2]; 10.0 μg/ml) of 0.780 and an Absorbancy ([3]; 0.1 μg/ml) of 0.420. The Absorbancy ([3]; 1.0 μg/ml) was 0.396, the Absorbancy ([3]; 10.0 μg/ml) was 0.352 and the Absorbancy ([4]; 0.1 μg/ml) was 0.485. It also gave an Absorbancy ([4]; 1.0 μg/ml) of 0.466, an Absorbancy ([4]; 10.0 μg/ml) of 0.394 and an Absorbancy ([5]; 0.1 μg/ml) of 0.593. For the same compound, the Absorbancy ([5]; 1.0 μg/ml) was 0.657, the Absorbancy ([5]; 10.0 μg/ml) was 0.590 and the Absorbancy ([6]; 0.1 μg/ml) was 0.761. It also gave an Absorbancy ([6]; 1.0 μg/ml) of 0.734, an Absorbancy ([6]; 10.0 μg/ml) of 0.711 and an Absorbancy ([7]; 0.1 μg/ml) of 0.462. For the same compound, the Absorbancy ([7]; 1.0 μg/ml) was 0.485, the 3H-thymidine uptake ([8]; 0.001 μg/ml) was 22321 cpm and the 3H-thymidine uptake ([8]; 0.01 μg/ml) was 8182 cpm. It also gave a 3H-thymidine uptake ([8]; 0.1 μg/ml) of 1952 cpm, an inhibition at 0.001 µg/mL ([8]; Mus musculus, Lymphocyte, 0.001 μg/ml, read-out: Suppression) of 23.5% and an inhibition at 0.01 µg/mL ([8]; Mus musculus, Lymphocyte, 0.01 μg/ml, read-out: Suppression) of 90.6%. For the same compound, the inhibition at 0.1 µg/mL ([8]; Mus musculus, Lymphocyte, 0.1 μg/ml, read-out: Suppression) was 100%, the cytotoxicity at 72 h ([9]; 0.1 μg/ml) was 4.7% and the cytotoxicity at 72 h ([9]; 1.0 μg/ml) was 5.2%. It also gave a cytotoxicity at 72 h ([9]; 10.0 μg/ml) of 18.1%, an Absorbancy ([10]; 0.1 μg/ml) of 0.591 and an Absorbancy ([10]; 1.0 μg/ml) of 0.588. It also gave an Absorbancy ([10]; 10.0 μg/ml) of 0.508, a cytotoxicity at 48 h ([11]; 0.1 μg/ml) of 0% and a cytotoxicity at 48 h ([11]; 1 μg/ml) of 0%. The cytotoxicity at 48 h ([11]; 10 μg/ml) was 0%, the Absorbancy ([12]; 0.1 μg/ml) was 0.775 and the Absorbancy ([12]; 1 μg/ml) was 0.805. It also gave an Absorbancy ([12]; 10 μg/ml) of 0.749.
